The target of assay [1] is T1, human CB2 receptor (Homo sapiens, UniProt P34972). Nature of the assay: cAMP functional assay in Flpin-CHO-CB2 cells (antagonism of CP55940-mediated decrease in cAMP). The class given is cell-based. How it is done:
Compounds 1, 3, 6, 7, 8, 12, and 15 were further evaluated by cAMP functional assays.
The CB2 receptor antagonistic activities of the 7 compounds were evaluated by investigating CB2-mediated cAMP production in Flpin-CHO-K1 cells functional assay. The Flpin-CHO-K1 cells that are engineered to stably express human CB2 receptor (the Flpin-CHO-CB2 cells) were cultured in the growth medium (Ham’s F12K + 10%FBS + 1×Ps + 800 ug/mL HB) at 37 °C and 5% CO2. The cells were then collected by centrifugation and resuspended in Hank’s balanced salt solution (HBSS), 0.1% bovine serum albumin (BSA), 20 mM N-(2-hydroxyethyl)-piperazine-N0-ethanesulfonic acid (HEPES), and 500 μM 3-isobutyl-1-methylxanthine (IBMX). The test compounds were serially diluted in DMSO at 2-fold dilutions of 10 concentrations ranging from 10,000 μM to 20 μM. The antagonistic activities were evaluated by assessing their ability to counteract the agonist (CP55940)-mediated decrease in cAMP accumulation. The accumulation of cAMP was determined by following the manufacturer’s instructions for a Perkin Elmer cAMP kit.

Assay [2] addresses T1, human CB2 receptor. Nature of the assay: Radioligand binding assays at human CB2 receptor ([3H]-CP55940). Particulars: [3H]-CP55940 0.8 nM, 90 min, 30 °C, read-out: Binding Affinities pKi (converted). Here is the method: The 15 compounds were purchased from J&K Scientific Ltd. (Shanghai, China). The radioligand binding assays and functional assays to CB2 receptor were performed by Pharmaron (Beijing) upon commission. In the CB2 receptor assays, [^3H]-CP55940 was used as the radioligand; the 15 compounds were tested in radioligand binding assays at human CB2 receptor ([^3H]-CP55940). The competition binding experiments of the test compounds at ten different concentrations and [^3H]-CP55940 (0.8 nM) against CB2 receptor (2 μg/well) were performed for 90 min at 30 °C in 500 μL of assay buffer (25 mM HEPES, 10 mM MgCl2, 1 mM CaCl2, 0.5% BSA, pH 7.4).

Assay [3] concerns the target T2, human CB1 receptor (Homo sapiens, UniProt P21554). Nature of the assay: cAMP functional assay against CB1 receptor. The class given is cell-based. How it is done:
(§1) The binding and functional selectivity of the five compounds were tested by performing radioligand binding assays and cAMP functional assays against the CB1 receptor.

The target in assay [4] is T2, human CB1 receptor. Nature of the assay: Radioligand binding assays at human CB1 receptor. The following applies: read-out: Binding affinities pKi (converted). Here is the method:
as §1

In the next assay the target is CB2 receptor. The following applies: cited from earlier work; for pKi: CB2 receptor; for Ki: pharmacophore training set, ChEMBL27 database.
Setting [5] is: human CB2 receptor, Flpin-CHO-CB2 cells, antagonism of CP55940, read-out: cAMP Assay pIC50 (converted).
Setting [6] is: CB1 receptor, cAMP functional assay, read-out: antagonistic activities against the CB1 receptor.
The mark [7] stands for this setting: human CB1 receptor, read-out: cAMP assay pIC50 (converted).

The values below come from PMC8587544, “Identification of Novel Antagonists Targeting Cannabinoid Receptor 2 Using a Multi-Step Virtual Screening Strategy” (Molecules, 2021).

Where two headings read alike, the source gives them in different places.

T1 sequence (P34972 whole entry): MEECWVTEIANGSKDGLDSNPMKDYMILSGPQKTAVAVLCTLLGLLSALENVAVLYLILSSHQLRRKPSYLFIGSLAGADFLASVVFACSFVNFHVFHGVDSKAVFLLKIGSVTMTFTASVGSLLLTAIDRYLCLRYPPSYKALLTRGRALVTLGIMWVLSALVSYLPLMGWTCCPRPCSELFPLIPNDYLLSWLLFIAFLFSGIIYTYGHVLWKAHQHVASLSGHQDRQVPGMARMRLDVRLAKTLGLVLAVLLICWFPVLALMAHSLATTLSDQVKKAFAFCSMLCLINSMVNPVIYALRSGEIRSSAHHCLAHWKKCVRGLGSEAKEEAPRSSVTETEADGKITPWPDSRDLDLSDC
T2 sequence (P21554 whole entry): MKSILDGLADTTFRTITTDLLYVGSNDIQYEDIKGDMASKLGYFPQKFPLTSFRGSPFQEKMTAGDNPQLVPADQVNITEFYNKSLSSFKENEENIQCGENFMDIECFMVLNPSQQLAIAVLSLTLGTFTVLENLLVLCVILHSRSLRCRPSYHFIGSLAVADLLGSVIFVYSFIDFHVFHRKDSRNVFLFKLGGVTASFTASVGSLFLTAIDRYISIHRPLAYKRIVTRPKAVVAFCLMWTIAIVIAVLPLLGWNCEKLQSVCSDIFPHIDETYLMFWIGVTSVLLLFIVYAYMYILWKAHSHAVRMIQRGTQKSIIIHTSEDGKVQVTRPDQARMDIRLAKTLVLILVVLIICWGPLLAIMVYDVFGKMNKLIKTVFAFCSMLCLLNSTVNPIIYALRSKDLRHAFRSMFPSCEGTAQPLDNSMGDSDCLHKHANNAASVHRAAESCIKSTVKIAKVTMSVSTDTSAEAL

With `O=C(NC1CCCCCC1)c1cc(-c2cccs2)nn1Cc1ccc(F)cc1` [Compound 15], the IC50 at human CB2 receptor [1] was 2.82 µM; against human CB1 receptor [3] (cAMP assay pIC50, human CB1 receptor), 4.57 µM. Also, the Ki at human CB2 receptor [2] was 1.74 µM; at human CB1 receptor [4] it was 25.7 µM.
As for SR144528, the pKi on CB2 receptor was 8.3–9.2.
On to `CCOC(=O)c1c(NC(=O)C23CC4CC(CC(C4)C2)C3)sc2c1CCCC2` [CHEMBL3909238], for which the Ki at CB2 receptor was 2.15 nM.
For the compound `CCCCCn1cc(C(=O)NC23CC4CC(CC(C4)C2)C3)c(=O)c2cc(-c3ccc(O)cc3)ccc21` [CHEMBL1215918], on CB2 receptor, the Ki was 4.2 nM.
Take `CCCCCCC1(c2cc(O)c3c(c2)OC(C)(C)[C@@H]2CC=C(C)C[C@@H]32)CCCC1` [CHEMBL108868]: the Ki on CB2 receptor was 1.91 nM.
Turning to `COc1ccc(C(=O)c2c(C)n(CCN3CCOCC3)c3cc(I)ccc23)cc1` [AM630], at CB2 receptor, the pKi is given as 7.5.
Regarding `C[C@@H](NS(=O)(=O)C(F)(F)F)c1ccc(S(=O)(=O)c2ccoc2S(=O)(=O)c2ccccc2F)cc1` [CHEMBL1270480], the Ki on CB2 receptor was 4.4 nM.
Consider `CC(=O)Nc1c2n(c3ccc(F)cc13)CC(C)(C(=O)NC1CCCC1)N(Cc1ccc(F)cc1)C2=O` (stereo not shown) [Compound 13], for which the Ki at human CB2 receptor [2] was 33.1 µM.
Turning to `COCCn1c(C)c(C)sc1=NC(=O)C1C(C)(C)C1(C)C` [CHEMBL1668519], the Ki at CB2 receptor was 0.64 nM.
Turning to `Cc1cc(S(=O)(=O)c2cc3cc(C(C)(C)C)cc(O)c3oc2=O)ccc1F` [Compound 9], the Ki at human CB2 receptor [2] was 23.4 µM.
Take `COc1cc(C(O)c2cccs2)cc(OC)c1-c1cc(Cl)cc(Cl)c1` (stereo not shown) [CHEMBL1076685]: the Ki at CB2 receptor was 0.2 nM.
Turning to `COc1cc(C2CC(=O)Nc3c2c(=O)n(C)c(=O)n3C)ccc1OCc1cccc(F)c1` (stereo not shown) [Compound 2], on human CB2 receptor [2], the Ki is over 100 µM.
Consider `O=C(CSc1nc2nccnc2c(=O)n1Cc1ccc2c(c1)OCO2)Nc1ccc(F)cc1` [Compound 5], for which the Ki at human CB2 receptor [2] was 38 µM.
For the compound `O=c1c2nccnc2nc(SCc2cccc(F)c2)n1Cc1cccs1` [Compound 12], the IC50 is 5.62 µM on human CB2 receptor [1] (setting [5]) and over 20 µM on human CB1 receptor [3] (setting [6]). Besides, the Ki on human CB2 receptor [2] is 3.55 µM; on human CB1 receptor [4] it was 38 µM.
In the case of `O=C(Cn1c(=O)n(Cc2ccccc2)c(=O)c2sc3ccccc3c21)NC1CCCCC1` [Compound 4], the Ki at human CB2 receptor [2] is over 100 µM.
For `COc1ccc(-n2c(=O)c3c4c(sc3n(Cc3ccc(F)cc3)c2=O)CN(C(C)=O)CC4)cc1` [Compound 6], the IC50 on human CB2 receptor [1] (setting [5]) is over 20 µM. Besides, at human CB2 receptor [2], the Ki was 7.08 µM.
Regarding `CSC(=S)N1CC2(CCCCC2)CS/C1=N\c1cccc(C(C)C)c1` [CHEMBL231719], the Ki at CB2 receptor is 2.5 nM.
On to `Cc1ccc(C)c(CNC(=O)c2cc(-c3cccs3)nn2Cc2ccc(F)cc2)c1` [Compound 14], for which, at human CB2 receptor [2], the Ki is 17.8 µM.
For the compound `Cc1cccn2c(=O)c(/C=C3\SC(=S)N(Cc4ccco4)C3=O)c(NCC3CCCO3)nc12` (stereo not shown) [Compound 8], the “antagonistic activity towards the CB2 receptor in comparison to the CB1 receptor (selectivity)” value on human CB2 receptor [1] (cAMP functional assays, CB2 over CB1) is listed as “more than 100 times”. Further, the IC50 at human CB2 receptor [1] (setting [5]) was 0.117 µM; at human CB1 receptor [3] (setting [6]) it was over 20 µM; at human CB1 receptor [3] (setting [7]), over 20 µM. For the same compound, the Ki at human CB2 receptor [2] is 0.219 µM; on human CB1 receptor [4], 3.39 µM.
Consider `COc1ccccc1Nc1sc(C(=O)c2ccccc2)c(N)c1S(=O)(=O)c1ccccc1` [Compound 3], for which the figures for the IC50 on human CB2 receptor [1] (setting [5]) and at human CB1 receptor [3] (setting [6]) were 0.339 µM and over 20 µM, respectively. Besides, the Ki at human CB2 receptor [2] was 4.9 µM; on human CB1 receptor [4], 18.6 µM.
As to `NC(=O)c1nc(Nc2ccccc2)sc1NC(=O)C12CC3CC(CC(C3)C1)C2` [Compound 1], the IC50 on human CB2 receptor [1] (setting [5]) was over 20 µM. Besides, the Ki on human CB2 receptor [2] is 1.58 µM.
Consider `CC(=O)N1CCc2c(sc3c2c(=O)n(Cc2ccccc2)c(=O)n3Cc2c(F)cccc2Cl)C1` [Compound 7], for which the IC50 on human CB2 receptor [1] (setting [5]) was 3.47 µM; on human CB1 receptor [3] (setting [7]), 7.08 µM. Further, the Ki is 6.61 µM at human CB2 receptor [2] and 16.6 µM on human CB1 receptor [4].
For the compound `CCCCNC(=O)Cn1c(=O)n(-c2cccc(C(F)(F)F)c2)c(=O)c2sccc21` [Compound 10], the Ki at human CB2 receptor [2] was 17.8 µM.
Same read-out and setting: the value for `CN(C(=O)c1nn(C)c2c1COc1ccccc1-2)c1cccc(C(F)(F)F)c1` [Compound 11] was 13.8 µM.

Usually pKi stands for the negative decadic logarithm of the Ki, by convention in mol/L.
